Experimental data: patent US20180196033A1, “CELL TRACKING REAGENTS AND THEIR METHODS OF USE” (LIFE TECHNOLOGIES CORPORATION, priority 2015, published 2018)
“And” between values parts separate entries of the source, which are not always exact repeats. Identical values can stand only once.

Tested on: Human peripheral blood mononuclear cells (PBMCs)
Assay: Generational tracking of cell proliferation by dye dilution, flow cytometry
Type: cell-based
Settings: PBMCs stained with 10 mM stock at 1 μL per mL of cells, 20 min; stimulated with Interleukin-2 and CD3/CD28 DYNABEADS; 355 nm laser, 450/50 bandpass emission filter
Description: 20 mL whole blood were added to 20 mL DPBS and mixed well. 15 mL FICOLL-PAQUE® PLUS (GE Healthcare) were added to each of two 50 mL centrifuge tubes. 20 mL of the diluted whole blood was carefully layered on top. The tube containing the whole blood was centrifuged for 30 min at 400×g and the peripheral blood mononuclear cell (PBMC) layer was carefully removed. The cells were resuspended in 25 mL DPBS in a 50 mL centrifuge tube and centrifuged for 5 min at 400×g. The supernatant was decanted and the cells were resuspended in 10 mL DPBS. Cells were counted on a COUNTESS Automated Cell Counter (Thermo Fisher Scientific) with the concentration adjusted to 1×10^6 cells/mL in DPBS.
20 μL anhydrous DMSO was added to a vial of dry Compound 1 (64 μg) at room temperature. 1 mL of unstained cells was reserved as a control. Cells were labeled with 1 μL of 10 mM Compound 1, per milliliter of cell suspension. The tubes were immediately vortexed for 30 sec and the cells were incubated for 20 min at room temperature, protected from light. […]
2 mL of each sample were removed by first mixing sample with a pipet then transferring them to their own tubes. […] Cells were counted on a COUNTESS Automated Cell Counter with the concentration adjusted to 1×10^6 cells/mL in DPBS. […]

COc1ccc2cc(C(=O)ON3C(=O)CCC3=O)c(=O)oc2c1 [Compound 1]
time over which cell proliferation was followed (discrete peaks of successive generations of live, CD4 positive cells): 7 days and 6 days
